Legend:
[1] = canine urine oxalate count; conditions: about 1 gram per day intake; 25 Kilogram canine
[2] = FIG. 1; cited from earlier work
[3] = system: infected torn toenail; test: soaking of poodle's infected paw in oxalic acid solution; type: in vivo, dog; conditions: 150 mg in 300 ml of distilled water, after two soakings; antibiotic also given
Source text: On another occasion, the inventor's pet poodle had torn a toenail which became infected. The infection was in an advanced stage which was extremely sensitive and the poodle would not use the leg while walking. The poodle was examined by the veterinarian, received an injection of a antibiotic, and oral capsules were to be given.

[4] = system: tarter or plaque, gums and mouth tissue; test: daily use of dental hygiene composition by the inventor; type: in vivo, human; conditions: 150 mg diluted in 300 ml of distilled water
Source text: The inventor continued to search for other uses of the “miracle bullet” oxalic acid or oxalate compositions for treating the body and immune system. […] There was no more occasional bleeding of the gums during daily brushing, and the surface of the tongue appeared to be more smooth with an even coloring across the surface.

[5] = man; cited from earlier work
[6] = system: gingivitis, tarter and plaque; test: daily brushing of dog's teeth with oxalic acid solution; type: in vivo; conditions: 150 mg in 300 ml of distilled water, one week
Source text: At the completion of the exam, rather than treat the gingivitis with an injection of antibacterial medication followed by oral medication, it was agreed the inventor would commence daily brushing of the dog's teeth. […] The inventor began a daily brushing of the dog's teeth paying particular attention to the upper gums. The brushing was done first thing in the morning before the dog had anything to eat or drink. After the fourth day of brushing, the inventor/owner of the dog, noticed the redness of the gingivitis was disappearing and after one week returned the dog to the veterinarian for a follow-up exam. […] The veterinarian recommended cleaning one side of the dogs upper teeth and continuing with the daily brushing routine.

[7] = system: viral pneumonia; test: mouthwash procedure in viral pneumonia; type: in vivo, human; conditions: 150 mg in 300 ml of distilled water, rinse and gargle three times daily, Friday to Sunday; antibiotics also given
Experimental: Also, their spouse was diagnosed with viral pneumonia by X-ray examination. They were given antibiotics to ward off infections because of a weakened immune system. […] They started the recommended procedure of approximately 2 teaspoons of wash, holding in mouth for 2 minutes then gargle, spit out wash, then rinsing mouth at least twice with warm tap water. The procedure was repeated first thing in the morning immediately after rising and before anything else was put in mouth. It was done mid-day with nothing in mouth one hour prior to wash. At night, the procedure was repeated as the last item before retiring.

[8] = system: cold, flu virus, sore throat; test: mouth rinse and gargle case studies, cold, flu, sore throat; type: in vivo, human; conditions: rinse two minutes and gargle three times a day for four days; two cases
Source text: On another occasion while visiting the veterinary clinic, the inventor noticed the receptionist had symptoms of a cold, and upon questioning the receptionist learned […] was treating a cold which was into the start of the second week. […] The inventor advised the receptionist that, each morning immediately upon rising, and prior to any other substance being put into the mouth, they should take approximately one teaspoon of the solution in their mouth, holding it for a minimum of two minutes, swishing the solution gently around the mouth, then discarding the solution and rinsing the mouth with warm water two or three times. The procedure began Friday night and the following Monday morning the cold was gone.
The dilute solution was the bench mark solution.
On still another occasion a pharmacist, consultant to the inventor, awoke at 2:30 a.m. with a very sore throat, unable to swallow without severe pain, remembered the inventor's description of their own experience, mixed two teaspoons of the bench mark mixture and two teaspoons of warm water, held the mixture in the mouth for two minutes and gargled well. After a 15-minute wait, repeated the procedure and then retired. Upon arising at 6:30 a.m., repeated the procedure one time before leaving for the pharmacy.

[9] = system: leukemia with tumors in lymph nodes; test: case study, leukemia with tumors in lymph nodes; type: in vivo, human; conditions: after 5-7 days; about 1 to 1 ½ g/day in dilute solution, almost no blockers
Source text: An adult was terminally ill with leukemia with tumors in their lymph nodes and they had stopped chemotherapy treatment. […] It was hard for them to swallow so they were on a liquid diet because of the swelling of the lymph nodes in and around their mouth and throat.

[10] = system: bone cancer (sarcoma) of the left hind leg; test: case study, Doberman pincher with bone cancer, oxalic acid enhanced dogfood; type: in vivo, dog
Source text: In accordance with another case study, a Doberman […] diagnosed with bone cancer (sarcoma) of the left hind leg. The dog had previously been put on medication for arthritis because it would not use or lower its left hind leg. […] A few days later, the dog began taking steps on the left hind leg with a slight limp.

[11] = system: melanoma (mouth tumor); test: case study, Irish Setter with melanoma, oxalic acid diet and food additive; type: in vivo, canine; conditions: eleven month period; diet, then oxalic acid dihydrate 1 gram down to 20 mg per day in food
[12] = case study, dog at a pound given oxalic acid dihydrate gel cap for seven days; type: in vivo; conditions: one gram in a gel cap one hour prior to meal time for seven days
[13] = system: fever, burning and irritation when urinating, back pain; test: vitamin B6 pills for fever, urinary irritation, back pain attributed to oxalic acid; type: in vivo, human
Experimental: Then Turk's owner moved to Arkansas. His […], who is married and living nearby, worked at a local hospital. One day they began running a high fever in the range of 104° -106°, went home, and went straight to bed. The fever fell, and the next couple of days they returned to work only to have the fever return after a couple of hours. They went home and the cycle repeated. They mentioned this to a doctor in the emergency room and a series of tests were ordered looking for a virus, an infection, even a tubular conception. Turk's owner became involved, because after listening to long, sometimes whispered conversations between their spouse and stepdaughter, they asked what the trouble was. Their spouse explained what had happened and that the doctor was looking for some type of urinary tract or vaginal infection, but there were no positive cultures. […] Their stepdaughter was eating primarily salad bar meals loaded with oxalic acid.

[14] = system: low red blood cell count; test: vitamin B6 pills in woman with low red blood cell count; type: in vivo, human; conditions: 50 mg pills, one a day first week then every other day; three weeks
Source text: After retirement, Turk's owner was planning to move and some friends stopped by to visit. One evening while having cocktails with the friends, they began talking about health and age, etc. […] Turk's owner's research had paid off. They gave their organic gardening magazine to the person and urged them to read the article by Judith Benn Hurley. They explained to them that the reason their red cell count was low was because of their diet. […] Their diet contained items high in oxalic acid, like spinach, their favorite salad.

[15] = after dose reduced to about 1 gram, then about 500 mg per day

SMILES: O=C(O)C(=O)O [oxalic acid, ethanedioic acid]
- level of oxalate in the urine [1]: ~22000 ng/mL
- stability of solutions to radiation [2]: decomposed by radiation
- infection of the paw [3]: improved dramatically
- condition of gums and mouth tissue [4]: remarkable improvement
- tarter or plaque in the mouth [4]: removal of and prevention of any build up of tarter or plaque
- death after ingestion, as early as [5]: 3 min
- death after ingestion, as late as [5]: 14 days
- gingivitis at follow-up exam [6]: no more evidence of gingivitis
- tarter and plaque at follow-up exam [6]: no tarter but moderate plaque remained
- effects of the viral pneumonia [7]: nearly complete relief
- soreness of throat and nose, flu virus [8]: completely removes all soreness of throat and nose
- tumors in lymph nodes [9]: shrinkage of tumors in the lymph nodes

SMILES: O=C(O)C(=O)O [oxalic acid dihydrate]
- pain and walking ([10]; after about 30 days on the oxalic acid diet): no pain during physical exam and was walking normally
- X-ray, area affected by the sarcoma [10, 15]: decrease or reduction in the size of the area affected by the sarcoma
- X-ray, bone material [10, 15]: increase in bone material in the area of the sarcoma
- use of left hind leg ([10]; within 4 days, about 2 grams added to dry dogfood): lowered its left hind leg and used it frequently
- mouth tumor size [11]: reduced in size
- adverse effects [12]: no adverse effects

SMILES: Cc1ncc(CO)c(CO)c1O.Cl [vitamin B6, pyridoxine hydrochloride]
- symptoms ([13]; after the third day): all symptoms were gone
- back pain without muscle or spine problems ([13]; other people): found relief
- fever ([13]; two pills, one after twelve hours, then one a day, in two days): fever was gone
- outcome, surgery delayed by low red cell count [14]: doctor had just scheduled their operation

Reference: patent US6407141B1 (priority 1995, dated 2002)
